Among the data in EP0390558B1, “Aromatase inhibiting 4(5)-imidazoles” (ORION-YHTYMÄ OY, priority 1989, dated 1990) are IC50 values, retold here.

The target in this test is T1, Human aromatase enzyme (Homo sapiens, UniProt P11511).
T1 construct: The enzyme preparation was used without further purification; from tissue; host or cells: human placenta, microsomal fraction (100000 x g precipitate)
T1 sequence (P11511 1-503): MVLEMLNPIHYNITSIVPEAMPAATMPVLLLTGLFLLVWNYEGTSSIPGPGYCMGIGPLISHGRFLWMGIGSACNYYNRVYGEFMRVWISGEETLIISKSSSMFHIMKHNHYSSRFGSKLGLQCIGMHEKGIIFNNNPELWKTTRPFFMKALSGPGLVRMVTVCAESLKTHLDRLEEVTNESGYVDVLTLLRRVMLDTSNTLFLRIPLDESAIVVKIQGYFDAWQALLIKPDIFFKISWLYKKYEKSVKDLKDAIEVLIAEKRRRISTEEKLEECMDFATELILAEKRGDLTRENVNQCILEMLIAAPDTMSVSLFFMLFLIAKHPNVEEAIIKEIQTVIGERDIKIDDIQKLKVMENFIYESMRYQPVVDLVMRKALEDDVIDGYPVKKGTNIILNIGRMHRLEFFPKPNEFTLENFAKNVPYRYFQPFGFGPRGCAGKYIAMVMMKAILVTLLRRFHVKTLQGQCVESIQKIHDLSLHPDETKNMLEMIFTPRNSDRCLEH
The test is described as follows: In vitro aromatase inhibition assay (3H2O release from 1,2[3H]-androstene-3,17-dione). It counts as biochemical.
For the compound `Cc1cccc(C)c1CCCCC(c1ccc(F)cc1)c1c[nH]cn1` (centres unmarked) [Compound 13b, 4-[1-(4-fluorophenyl)-5-(2,6-dimethylphenyl)-pentyl]-1H-imidazole], half-maximal inhibition (IC50) required 7.7 µM.
In turn, `COc1ccc(CCCCC(c2ccc(F)cc2)c2c[nH]cn2)cc1` (centres unmarked) [Compound 12b, 4-[1-(4-fluorophenyl)-5-(4-methoxyphenyl)pentyl]-1H-imidazole] showed an IC50 of 3 µM. This IC50 lies about 2.6-fold lower than the previous one.
The same measure for `COc1cccc(CCCCC(c2ccc(F)cc2)c2c[nH]cn2)c1` (centres unmarked) [Compound 11b, 4-[1-(4-fluorophenyl)-5-(3-methoxyphenyl)pentyl]-1H-imidazole]: 2.6 µM.
The compound `c1ccc(CCC(c2ccccc2)c2cncn2Cc2ccccc2)cc1` (centres unmarked) [Compound 8b, 1-benzyl-5-(1,3-diphenylpropyl)-1H-imidazole] displayed an IC50 of 30 µM.
Regarding `Cc1cc(C)cc(CCCCC(c2ccc(F)cc2)c2c[nH]cn2)c1` (centres unmarked) [Compound 5b, 4-[5-(3,5-dimethylphenyl)-1-(4-fluorophenyl)-pentyl]-1H-imidazole], the IC50 turned out to be 7.5 µM.
